Measured values: PubChem BioAssay (NCI)
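Following 48 hours of exposure in 96-well plates, responses at five concentrations were used to interpolate endpoints linearly. TGI marks complete inhibition of growth.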

Assays:
Assay in all cases: NCI-60 cell line screen, 48 h
786-0 renal = system: 786-0 renal
MCF7 breast = system: MCF7 breast
UO-31 renal = system: UO-31 renal
NCI-H460 lung = system: NCI-H460 lung
NCI-H226 lung = system: NCI-H226 lung
CCRF-CEM leukemia = system: CCRF-CEM leukemia
DU-145 prostate = system: DU-145 prostate
UACC-257 melanoma = system: UACC-257 melanoma
HL-60(TB) leukemia = system: HL-60(TB) leukemia
NCI/ADR-RES ovarian = system: NCI/ADR-RES ovarian
A498 renal = system: A498 renal
MOLT-4 leukemia = system: MOLT-4 leukemia
HS 578T breast = system: HS 578T breast
OVCAR-5 ovarian = system: OVCAR-5 ovarian
LOX IMVI melanoma = system: LOX IMVI melanoma
A549 NSCLC = system: A549 NSCLC
SN12C renal = system: SN12C renal
SF-268 CNS = system: SF-268 CNS
ACHN renal = system: ACHN renal
HCC-2998 colon = system: HCC-2998 colon
SNB-19 CNS = system: SNB-19 CNS
PC-3 prostate = system: PC-3 prostate
HOP-92 NSCLC = system: HOP-92 NSCLC
T-47D breast = system: T-47D breast
SW-620 colon = system: SW-620 colon
COLO 205 colon = system: COLO 205 colon
EKVX NSCLC = system: EKVX NSCLC
MDA-N = system: MDA-N
HOP-62 NSCLC = system: HOP-62 NSCLC
CAKI-1 renal = system: CAKI-1 renal
HCT-15 colon = system: HCT-15 colon
HCT-116 colon = system: HCT-116 colon
SK-MEL-2 melanoma = system: SK-MEL-2 melanoma
SR leukemia = system: SR leukemia
NCI-H522 lung = system: NCI-H522 lung
SNB-75 CNS = system: SNB-75 CNS
MDA-MB-435 = system: MDA-MB-435
OVCAR-4 ovarian = system: OVCAR-4 ovarian
SK-MEL-5 melanoma = system: SK-MEL-5 melanoma
IGROV1 ovarian = system: IGROV1 ovarian
SK-MEL-28 melanoma = system: SK-MEL-28 melanoma
OVCAR-8 ovarian = system: OVCAR-8 ovarian
MALME-3M melanoma = system: MALME-3M melanoma
SF-539 CNS = system: SF-539 CNS
HT29 colon = system: HT29 colon
KM12 colon = system: KM12 colon
U251 CNS = system: U251 CNS
TK-10 renal = system: TK-10 renal
SF-295 CNS = system: SF-295 CNS
M14 melanoma = system: M14 melanoma
MDA-MB-231 breast = system: MDA-MB-231 breast
NCI-H23 lung = system: NCI-H23 lung
UACC-62 melanoma = system: UACC-62 melanoma
RXF 393 renal = system: RXF 393 renal
OVCAR-3 ovarian = system: OVCAR-3 ovarian
RPMI-8226 leukemia = system: RPMI-8226 leukemia
K-562 leukemia = system: K-562 leukemia
SK-OV-3 ovarian = system: SK-OV-3 ovarian

CCN(CC)CCOc1ccc(N2C(=O)c3cccc4cc([N+](=O)[O-])cc(c34)C2=O)cc1
TGI (786-0 renal): 18.3 µM | TGI (MCF7 breast): 23.5 µM | TGI (UO-31 renal): 21.7 µM | TGI (NCI-H460 lung): 15.5 µM | TGI (NCI-H226 lung): 19 µM | TGI (CCRF-CEM leukemia): 30.8 µM | TGI (DU-145 prostate): 24.3 µM | TGI (UACC-257 melanoma): 27 µM | TGI (HL-60(TB) leukemia): 28.2 µM | TGI (NCI/ADR-RES ovarian): 60 µM | TGI (A498 renal): 25.4 µM | TGI (MOLT-4 leukemia): 11.3 µM | TGI (HS 578T breast): 42.5 µM | TGI (OVCAR-5 ovarian): 20.9 µM | TGI (LOX IMVI melanoma): 20.4 µM | TGI (A549 NSCLC): 19.8 µM | TGI (SN12C renal): 40.9 µM | TGI (SF-268 CNS): 27.1 µM | TGI (ACHN renal): 15.9 µM | TGI (HCC-2998 colon): 25 µM | TGI (SNB-19 CNS): 30.3 µM | TGI (PC-3 prostate): 35.2 µM | TGI (HOP-92 NSCLC): 44.1 µM | TGI (T-47D breast): 39.3 µM | TGI (SW-620 colon): 25.8 µM | TGI (COLO 205 colon): 64.2 µM | TGI (EKVX NSCLC): 35.4 µM | TGI (MDA-N): 30.3 µM | TGI (HOP-62 NSCLC): 15.4 µM | TGI (CAKI-1 renal): 26 µM | TGI (HCT-15 colon): 26.1 µM | TGI (HCT-116 colon): 20.5 µM | TGI (SK-MEL-2 melanoma): 33.7 µM | TGI (SR leukemia): 32.8 µM | TGI (NCI-H522 lung): 19.7 µM | TGI (SNB-75 CNS): 35.1 µM | TGI (MDA-MB-435): 26.6 µM | TGI (OVCAR-4 ovarian): 31 µM | TGI (SK-MEL-5 melanoma): 26.6 µM | TGI (IGROV1 ovarian): 22.3 µM | TGI (SK-MEL-28 melanoma): 25.3 µM | TGI (OVCAR-8 ovarian): 34.5 µM | TGI (MALME-3M melanoma): 26.9 µM | TGI (SF-539 CNS): 25.1 µM | TGI (HT29 colon): 18.3 µM | TGI (KM12 colon): 64.5 µM | TGI (U251 CNS): 22.6 µM | TGI (TK-10 renal): 26 µM | TGI (SF-295 CNS): 21.1 µM | TGI (M14 melanoma): 25.3 µM | TGI (MDA-MB-231 breast): 37.6 µM | TGI (NCI-H23 lung): 26.5 µM

CC1CC(C)CC(NC2=NCCO2)C1 (centres undefined)
TGI (UACC-62 melanoma): > 100 µM | TGI (786-0 renal): > 100 µM | TGI (MCF7 breast): > 100 µM | TGI (UO-31 renal): > 100 µM | TGI (NCI-H460 lung): > 100 µM | TGI (RXF 393 renal): > 100 µM | TGI (NCI-H226 lung): > 100 µM | TGI (CCRF-CEM leukemia): > 100 µM | TGI (DU-145 prostate): > 100 µM | TGI (UACC-257 melanoma): > 100 µM | TGI (HL-60(TB) leukemia): > 100 µM | TGI (NCI/ADR-RES ovarian): > 100 µM | TGI (A498 renal): > 100 µM | TGI (MOLT-4 leukemia): > 100 µM | TGI (HS 578T breast): > 100 µM | TGI (OVCAR-5 ovarian): > 100 µM | TGI (LOX IMVI melanoma): > 100 µM | TGI (A549 NSCLC): > 100 µM | TGI (SN12C renal): > 100 µM | TGI (SF-268 CNS): > 100 µM | TGI (ACHN renal): > 100 µM | TGI (HCC-2998 colon): > 100 µM | TGI (SNB-19 CNS): > 100 µM | TGI (PC-3 prostate): > 100 µM | TGI (HOP-92 NSCLC): > 100 µM | TGI (OVCAR-3 ovarian): > 100 µM | TGI (RPMI-8226 leukemia): > 100 µM | TGI (T-47D breast): > 100 µM | TGI (SW-620 colon): > 100 µM | TGI (COLO 205 colon): > 100 µM | TGI (EKVX NSCLC): > 100 µM | TGI (MDA-N): > 100 µM | TGI (HOP-62 NSCLC): > 100 µM | TGI (CAKI-1 renal): > 100 µM | TGI (HCT-15 colon): > 100 µM | TGI (HCT-116 colon): > 100 µM | TGI (SK-MEL-2 melanoma): > 100 µM | TGI (SR leukemia): > 100 µM | TGI (NCI-H522 lung): > 100 µM | TGI (MDA-MB-435): > 100 µM | TGI (OVCAR-4 ovarian): > 100 µM | TGI (SK-MEL-5 melanoma): > 100 µM | TGI (IGROV1 ovarian): > 100 µM | TGI (SK-MEL-28 melanoma): > 100 µM | TGI (OVCAR-8 ovarian): > 100 µM | TGI (MALME-3M melanoma): > 100 µM | TGI (SF-539 CNS): > 100 µM | TGI (HT29 colon): > 100 µM | TGI (KM12 colon): > 100 µM | TGI (U251 CNS): > 100 µM | TGI (K-562 leukemia): > 100 µM | TGI (TK-10 renal): > 100 µM | TGI (SF-295 CNS): > 100 µM | TGI (M14 melanoma): > 100 µM | TGI (MDA-MB-231 breast): > 100 µM | TGI (NCI-H23 lung): > 100 µM

COc1cc(C=O)cc(/C=N/c2ccccn2)c1O
TGI (UACC-62 melanoma): > 100 µM | TGI (786-0 renal): > 100 µM | TGI (MCF7 breast): > 100 µM | TGI (UO-31 renal): 14.1 µM | TGI (NCI-H460 lung): 42.7 µM | TGI (RXF 393 renal): 4.97 µM | TGI (NCI-H226 lung): 38.4 µM | TGI (CCRF-CEM leukemia): > 100 µM | TGI (DU-145 prostate): > 100 µM | TGI (UACC-257 melanoma): 55.3 µM | TGI (HL-60(TB) leukemia): 83.3 µM | TGI (NCI/ADR-RES ovarian): > 100 µM | TGI (A498 renal): 31.3 µM | TGI (MOLT-4 leukemia): 88.7 µM | TGI (HS 578T breast): 70.6 µM | TGI (OVCAR-5 ovarian): > 100 µM | TGI (LOX IMVI melanoma): 30.9 µM | TGI (A549 NSCLC): > 100 µM | TGI (SN12C renal): 88.8 µM | TGI (SF-268 CNS): 19 µM | TGI (ACHN renal): 6.97 µM | TGI (HCC-2998 colon): > 100 µM | TGI (SNB-19 CNS): > 100 µM | TGI (PC-3 prostate): 25.6 µM | TGI (HOP-92 NSCLC): 8.55 µM | TGI (OVCAR-3 ovarian): 59.1 µM | TGI (RPMI-8226 leukemia): 51.9 µM | TGI (T-47D breast): > 100 µM | TGI (SW-620 colon): > 100 µM | TGI (COLO 205 colon): 29.5 µM | TGI (EKVX NSCLC): > 100 µM | TGI (MDA-N): 35.6 µM | TGI (HOP-62 NSCLC): 80 µM | TGI (CAKI-1 renal): 9.76 µM | TGI (HCT-15 colon): > 100 µM | TGI (HCT-116 colon): > 100 µM | TGI (SK-MEL-2 melanoma): 10.5 µM | TGI (SR leukemia): 34.5 µM | TGI (SNB-75 CNS): 16.3 µM | TGI (MDA-MB-435): 41.4 µM | TGI (SK-OV-3 ovarian): 78 µM | TGI (OVCAR-4 ovarian): > 100 µM | TGI (SK-MEL-5 melanoma): 11.4 µM | TGI (SK-MEL-28 melanoma): 21.9 µM | TGI (OVCAR-8 ovarian): 12 µM | TGI (MALME-3M melanoma): 14.9 µM | TGI (SF-539 CNS): 8.84 µM | TGI (HT29 colon): 55 µM | TGI (KM12 colon): > 100 µM | TGI (U251 CNS): 55.2 µM | TGI (K-562 leukemia): > 100 µM | TGI (TK-10 renal): > 100 µM | TGI (SF-295 CNS): > 100 µM | TGI (M14 melanoma): 62.2 µM | TGI (MDA-MB-231 breast): > 100 µM | TGI (NCI-H23 lung): > 100 µM
